Experimental data reported in ChEMBL document CHEMBL5518204, “Discovery and Proof of Concept of Potent Dual Polθ/PARP Inhibitors for Efficient Treatment of Homologous Recombination-Deficient Tumors” (J Med Chem, 2024).
Active and inactive are the calls of the source. The calls are words filed in the database; no cut-off is given here.

What was measured:
MDA-MB-231 [1] = test: Induction of cell cycle arrest in human MDA-MB-231 cells assessed as accumulation of cells at G2/M phase at 10 uM incubated for 3 days in presence of olaparib by PI staining based flow cytometric analysis; assay type: functional; conditions: time 3.0 day
MDA-MB-231 [2] = test: Induction of apoptosis in human MDA-MB-231 cells at 2 to 10 uM incubated for 3 days in presence of olaparib by Annexin V-APC/7-AAD based flow cytometry analysis; assay type: functional; conditions: dose 2-10 µM, time 3 day
SK-OV-3 = test: Antiproliferative activity against BRCA-proficient human SK-OV-3 cells assessed as inhibition of cell proliferation incubated for 5 days by MTT assay; assay type: functional, cell-based; conditions: SK-OV-3, 120 h
HCC1937 = test: Antiproliferative activity against BRCA1-deficient human HCC1937 cells assessed as inhibition of cell proliferation incubated for 5 days by MTT assay; assay type: functional, cell-based; conditions: HCC1937, 120 h
MDA-MB-231 [3] = test: Induction of apoptosis in human MDA-MB-231 cells at 10 uM incubated for 3 days by Annexin V-APC/7-AAD based flow cytometry analysis; assay type: functional; conditions: time 3 day
MDA-MB-231 [4] = test: Antiproliferative activity against 53BP1-knockdown human MDA-MB-231 cells incubated for 24 hrs by MTT assay; assay type: functional, cell-based
SW48 = test: Antiproliferative activity against BRCA2-deficient human SW48 cells assessed as inhibition of cell proliferation incubated for 5 days by MTT assay; assay type: functional, cell-based; conditions: SW48, 120 h
MDA-MB-231 [5] = test: Antitumor activity against human MDA-MB-231 cells xenografted in BALB/c mouse assessed as tumor growth inhibition at 40 mg/kg, ip administered for 21 days in presence of olaparib; assay type: functional; conditions: MDA-MB-231, 504 h, time 21 day, read-out: TGI
[6] = (§1) Antiproliferative activity against human MCF-10A cells assessed as inhibition of cell proliferation incubated for 5 days by MTT assay; assay type: toxicity, cell-based; conditions: human, MCF-10A cells
MDA-MB-231 [7] = test: Induction of DNA damage in human MDA-MB-231 cells assessed as increase in tail intensity at 10 uM incubated for 3 days by florescence microscopic analysis; assay type: functional, cell-based; conditions: time 3.0 day
MDA-MB-231 [8] = test: Induction of cell cycle arrest in human MDA-MB-231 cells assessed as accumulation of cells at G2/M phase at 10 uM incubated for 3 days by PI staining based flow cytometric analysis; assay type: functional; conditions: time 3.0 day
MDA-MB-231 [9] = test: Induction of DNA damage in human MDA-MB-231 cells assessed as increase in tail intensity at 2 to 10 uM incubated for 3 days in presence of olaparib by florescence microscopic analysis; assay type: functional, cell-based; conditions: dose 2-10 µM, time 3.0 day
MDA-MB-436 [10] = test: Antiproliferative activity against BRCA1-deficient human MDA-MB-436 cells assessed as inhibition of cell proliferation incubated for 5 days by MTT assay; assay type: functional, cell-based; conditions: MDA-MB-436, 120 h
MDA-MB-231 [11] = test: Induction of DNA damage in human MDA-MB-231 cells assessed as increase in gammaH2AX foci at 2 to 10 uM incubated for 3 days in presence of olaparib by DAPI staining based confocal laser scanning microscopic analysis; assay type: functional, cell-based; conditions: dose 2-10 µM, time 3.0 day
MDA-MB-436 [12] = test: Inhibition of colony formation in human MDA-MB-436 cells at 2 to 10 uM incubated for 9 days in presence of olaparib by crystal violet staining based analysis; assay type: functional, cell-based; conditions: dose 2-10 µM, time 9.0 day
HCT-116 = test: Antiproliferative activity against BRCA2-deficient human HCT-116 cells assessed as inhibition of cell proliferation incubated for 5 days by MTT assay; assay type: functional, cell-based; conditions: HCT-116, 120 h
MDA-MB-231 [13] = test: Antitumor activity against human MDA-MB-231 cells xenografted in BALB/c mouse assessed as tumor growth inhibition at 40 mg/kg, ip administered for 21 days; assay type: functional; conditions: MDA-MB-231, 504 h, time 21 day, read-out: TGI
MDA-MB-231 [14] = test: Induction of DNA damage in human MDA-MB-231 cells assessed as increase in gammaH2AX foci at 10 uM incubated for 3 days by DAPI staining based confocal laser scanning microscopic analysis; assay type: functional, cell-based; conditions: time 3.0 day
MDA-MB-436 [15] = test: Inhibition of colony formation in human MDA-MB-436 cells at 10 uM incubated for 9 days by crystal violet staining based analysis; assay type: functional, cell-based; conditions: time 9.0 day
MDA-MB-231 [16] = test: Induction of cell cycle arrest in human MDA-MB-231 cells assessed as accumulation of cells at G2/M phase at 2 uM incubated for 3 days by PI staining based flow cytometric analysis; assay type: functional; conditions: time 3.0 day
MDA-MB-231 [17] = test: Induction of cell cycle arrest in human MDA-MB-231 cells assessed as accumulation of cells at G2/M phase at 10 uM incubated for 3 days in presence of novobiocin by PI staining based flow cytometric analysis; assay type: functional; conditions: time 3.0 day
MDA-MB-231 [18] = test: Induction of DNA damage in human MDA-MB-231 cells assessed as increase in tail intensity at 2 uM incubated for 3 days by florescence microscopic analysis; assay type: functional, cell-based; conditions: time 3.0 day
MDA-MB-231 [19] = test: Induction of apoptosis in human MDA-MB-231 cells at 2 uM incubated for 3 days by Annexin V-APC/7-AAD based flow cytometry analysis; assay type: functional; conditions: time 3 day
MDA-MB-436 [20] = test: Inhibition of colony formation in human MDA-MB-436 cells at 2 to 10 uM incubated for 9 days in presence of novobiocin by crystal violet staining based analysis; assay type: functional, cell-based; conditions: dose 2-10 µM, time 9.0 day
MDA-MB-436 [21] = test: Inhibition of colony formation in human MDA-MB-436 cells at 2 uM incubated for 9 days by crystal violet staining based analysis; assay type: functional, cell-based; conditions: time 9.0 day
MDA-MB-231 [22] = test: Induction of DNA damage in human MDA-MB-231 cells assessed as increase in tail intensity at 2 to 10 uM incubated for 3 days in presence of novobiocin by florescence microscopic analysis; assay type: functional, cell-based; conditions: dose 2-10 µM, time 3.0 day
MDA-MB-231 [23] = test: Induction of DNA damage in human MDA-MB-231 cells assessed as increase in gammaH2AX foci at 2 uM incubated for 3 days by DAPI staining based confocal laser scanning microscopic analysis; assay type: functional, cell-based; conditions: time 3.0 day
MDA-MB-231 [24] = test: Induction of DNA damage in human MDA-MB-231 cells assessed as increase in gammaH2AX foci at 2 to 10 uM incubated for 3 days in presence of novobiocin by DAPI staining based confocal laser scanning microscopic analysis; assay type: functional, cell-based; conditions: dose 2-10 µM, time 3.0 day
MDA-MB-231 [25] = test: Induction of apoptosis in human MDA-MB-231 cells at 2 to 10 uM incubated for 3 days in presence of novobiocin by Annexin V-APC/7-AAD based flow cytometry analysis; assay type: functional; conditions: dose 2-10 µM, time 3 day
DNA polymerase theta [26] = molecular target: T1, DNA polymerase theta (Homo sapiens, UniProt O75417); test: Inhibition of DNA polymerase theta (unknown origin) ATPase activity incubated for 60 mins in presence of ATP by ADP-glo kinase assay
[27] = molecular target: T2, Poly [ADP-ribose] polymerase 1 (Homo sapiens, UniProt P09874); conditions: dose 10.0 nM, time 90.0 min
MCF-10A = test: as §1; assay type: toxicity, cell-based; conditions: mcf-10a
DNA polymerase theta [28] = molecular target: T1, DNA polymerase theta; test: Inhibition of DNA polymerase theta (unknown origin) (1 to 899 residues) ATPase activity by NADH oxidation-coupled enzymatic assay
[29] = molecular target: T2, Poly [ADP-ribose] polymerase 1; test: Inhibition of human PARP1 incubated for 90 mins by colorimetric assay
DNA polymerase theta [30] = molecular target: T1, DNA polymerase theta; test: Inhibition of human DNA polymerase theta (67 to 970 residues) ATPase activity expressed in Sf9 insect cells incubated for 40 mins by ADP-glo assay

T2 sequence (P09874 whole entry): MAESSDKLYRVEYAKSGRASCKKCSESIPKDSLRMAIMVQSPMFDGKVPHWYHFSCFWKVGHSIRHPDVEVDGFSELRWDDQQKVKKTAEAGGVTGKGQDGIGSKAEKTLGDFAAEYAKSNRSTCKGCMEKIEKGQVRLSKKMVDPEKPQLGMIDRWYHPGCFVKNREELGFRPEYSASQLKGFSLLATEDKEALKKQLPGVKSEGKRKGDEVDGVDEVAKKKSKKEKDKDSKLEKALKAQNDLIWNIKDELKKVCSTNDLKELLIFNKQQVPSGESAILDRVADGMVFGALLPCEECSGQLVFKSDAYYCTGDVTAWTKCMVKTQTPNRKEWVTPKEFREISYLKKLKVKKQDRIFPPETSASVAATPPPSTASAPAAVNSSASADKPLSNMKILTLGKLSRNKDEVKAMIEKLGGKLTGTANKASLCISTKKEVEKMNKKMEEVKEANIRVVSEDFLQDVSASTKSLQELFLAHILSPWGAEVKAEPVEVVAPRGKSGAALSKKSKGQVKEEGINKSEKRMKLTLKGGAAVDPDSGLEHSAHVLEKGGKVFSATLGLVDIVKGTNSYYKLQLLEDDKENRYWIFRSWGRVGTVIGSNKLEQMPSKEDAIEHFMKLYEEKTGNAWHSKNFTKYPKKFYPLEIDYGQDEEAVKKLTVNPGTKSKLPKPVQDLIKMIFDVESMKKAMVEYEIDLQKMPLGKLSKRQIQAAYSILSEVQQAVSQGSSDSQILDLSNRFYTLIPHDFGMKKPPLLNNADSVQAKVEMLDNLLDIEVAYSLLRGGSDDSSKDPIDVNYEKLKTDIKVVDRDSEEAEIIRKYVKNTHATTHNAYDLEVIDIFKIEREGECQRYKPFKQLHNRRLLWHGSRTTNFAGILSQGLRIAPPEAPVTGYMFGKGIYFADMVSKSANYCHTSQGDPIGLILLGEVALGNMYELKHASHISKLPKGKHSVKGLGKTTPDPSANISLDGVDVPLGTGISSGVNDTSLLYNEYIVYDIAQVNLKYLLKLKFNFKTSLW
T1 sequence (O75417 whole entry): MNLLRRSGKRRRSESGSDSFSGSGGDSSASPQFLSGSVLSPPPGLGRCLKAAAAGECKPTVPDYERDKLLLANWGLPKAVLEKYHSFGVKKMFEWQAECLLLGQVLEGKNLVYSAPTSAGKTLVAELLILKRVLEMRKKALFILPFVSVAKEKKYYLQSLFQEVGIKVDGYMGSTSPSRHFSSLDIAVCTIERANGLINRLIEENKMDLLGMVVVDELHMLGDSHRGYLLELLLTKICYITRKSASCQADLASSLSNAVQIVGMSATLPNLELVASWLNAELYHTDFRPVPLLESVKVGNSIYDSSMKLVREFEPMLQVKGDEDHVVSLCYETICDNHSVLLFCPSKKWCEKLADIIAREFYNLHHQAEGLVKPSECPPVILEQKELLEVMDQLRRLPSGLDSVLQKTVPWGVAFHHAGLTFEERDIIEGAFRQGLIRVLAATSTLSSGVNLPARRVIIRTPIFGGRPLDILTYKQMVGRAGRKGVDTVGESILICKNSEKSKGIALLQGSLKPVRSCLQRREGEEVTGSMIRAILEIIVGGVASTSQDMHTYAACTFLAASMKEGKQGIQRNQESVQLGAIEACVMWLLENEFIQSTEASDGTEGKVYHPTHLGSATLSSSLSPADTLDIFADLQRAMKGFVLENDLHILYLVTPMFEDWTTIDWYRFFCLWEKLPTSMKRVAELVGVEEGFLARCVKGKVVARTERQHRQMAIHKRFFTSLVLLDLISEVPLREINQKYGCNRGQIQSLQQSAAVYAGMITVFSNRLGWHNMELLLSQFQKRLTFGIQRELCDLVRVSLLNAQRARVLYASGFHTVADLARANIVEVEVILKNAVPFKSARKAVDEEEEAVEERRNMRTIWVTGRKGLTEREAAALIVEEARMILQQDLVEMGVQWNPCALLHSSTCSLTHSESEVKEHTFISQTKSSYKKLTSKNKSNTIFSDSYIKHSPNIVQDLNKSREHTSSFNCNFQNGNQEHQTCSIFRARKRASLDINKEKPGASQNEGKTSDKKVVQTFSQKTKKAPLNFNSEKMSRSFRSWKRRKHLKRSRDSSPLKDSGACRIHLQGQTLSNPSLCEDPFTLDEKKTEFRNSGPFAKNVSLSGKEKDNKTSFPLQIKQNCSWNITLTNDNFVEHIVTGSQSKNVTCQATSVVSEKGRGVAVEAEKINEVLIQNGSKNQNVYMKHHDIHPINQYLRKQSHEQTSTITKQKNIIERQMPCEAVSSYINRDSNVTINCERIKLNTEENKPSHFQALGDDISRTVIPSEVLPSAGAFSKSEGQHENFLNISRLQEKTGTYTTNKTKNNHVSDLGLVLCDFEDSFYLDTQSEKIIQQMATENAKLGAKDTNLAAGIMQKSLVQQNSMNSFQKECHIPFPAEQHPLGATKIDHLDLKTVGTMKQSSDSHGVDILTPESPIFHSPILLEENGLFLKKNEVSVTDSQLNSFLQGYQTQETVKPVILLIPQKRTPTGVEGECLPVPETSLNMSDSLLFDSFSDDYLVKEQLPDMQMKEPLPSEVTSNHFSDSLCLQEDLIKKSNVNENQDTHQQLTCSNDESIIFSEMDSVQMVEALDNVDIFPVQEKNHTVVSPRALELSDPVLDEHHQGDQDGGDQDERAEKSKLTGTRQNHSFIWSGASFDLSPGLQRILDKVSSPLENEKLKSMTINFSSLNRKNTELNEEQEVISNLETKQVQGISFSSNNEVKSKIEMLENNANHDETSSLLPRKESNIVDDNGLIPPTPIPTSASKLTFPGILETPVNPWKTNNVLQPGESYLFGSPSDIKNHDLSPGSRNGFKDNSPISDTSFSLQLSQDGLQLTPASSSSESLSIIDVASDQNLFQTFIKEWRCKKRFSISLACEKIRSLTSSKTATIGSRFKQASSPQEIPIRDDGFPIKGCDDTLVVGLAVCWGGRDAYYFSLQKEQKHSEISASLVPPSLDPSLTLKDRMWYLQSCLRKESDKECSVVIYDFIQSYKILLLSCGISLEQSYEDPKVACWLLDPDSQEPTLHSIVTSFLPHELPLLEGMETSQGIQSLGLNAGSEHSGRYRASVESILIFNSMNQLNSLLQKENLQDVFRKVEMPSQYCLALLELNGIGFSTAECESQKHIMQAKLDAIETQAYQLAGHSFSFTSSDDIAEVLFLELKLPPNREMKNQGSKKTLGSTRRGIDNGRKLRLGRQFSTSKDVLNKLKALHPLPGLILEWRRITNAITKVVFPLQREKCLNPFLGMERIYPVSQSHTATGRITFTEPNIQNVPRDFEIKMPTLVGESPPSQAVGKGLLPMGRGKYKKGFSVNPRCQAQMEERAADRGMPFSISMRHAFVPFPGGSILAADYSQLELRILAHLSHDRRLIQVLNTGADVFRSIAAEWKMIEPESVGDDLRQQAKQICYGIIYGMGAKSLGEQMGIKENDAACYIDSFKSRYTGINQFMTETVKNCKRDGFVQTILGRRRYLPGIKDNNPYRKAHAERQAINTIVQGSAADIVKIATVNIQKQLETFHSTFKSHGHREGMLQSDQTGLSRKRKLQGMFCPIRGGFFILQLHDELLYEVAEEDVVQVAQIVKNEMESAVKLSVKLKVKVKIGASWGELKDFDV

Structure (SMILES)	IC50 (SK-OV-3) [µM]	IC50 (HCC1937) [µM]	IC50 (MDA-MB-436 [10]) [µM]	IC50 (HCT-116) [µM]	IC50 (DNA polymerase theta [26]) [µM]	inhibition [27] [%]	also measured
CO[C@@H]1[C@@H](OC(N)=O)[C@@H](O)[C@H](Oc2ccc3c(O)c(NC(=O)c4ccc(O)c(CC=C(C)C)c4)c(=O)oc3c2C)OC1(C)C [NOVOBIOCIN]	> 80	> 80	24.3	> 80			Activity (MDA-MB-231 [1]): Active; Activity (MDA-MB-231 [2]): 14.2%; Activity (MDA-MB-231 [3]): 6.4%; Activity (MDA-MB-231 [4]): Active; IC50 (SW48; read-out: IC50): > 80 µM; inhibition in vivo at 40 mg/kg (MDA-MB-231 [5]): 62.5%; IC50 at 5 days [6]: > 80 µM; Activity (MDA-MB-231 [7]): Active; Activity (MDA-MB-231 [8]): Active; Activity (MDA-MB-231 [9]): Active; Activity (MDA-MB-231 [11]): Active; inhibition (MDA-MB-436 [12]): Active; inhibition in vivo at 40 mg/kg (MDA-MB-231 [13]): 45%; Activity (MDA-MB-231 [14]): Active; inhibition (MDA-MB-436 [15]): Active
O=C(c1cc(Cc2n[nH]c(=O)c3ccccc23)ccc1F)N1CCN(C(=O)C2CC2)CC1 [OLAPARIB]	27.1	38.2	13.3				Activity (MDA-MB-231 [16]): Active; Activity (MDA-MB-231 [17]): Active; Activity (MDA-MB-231 [18]): Active; Activity (MDA-MB-231 [19]): 8.9%; inhibition (MDA-MB-436 [20]): Active; Activity (MDA-MB-231 [4]): inactive; IC50 (SW48): 4.6 µM; inhibition (MDA-MB-436 [21]): Active; IC50 at 5 days [6]: > 80 µM; Activity (MDA-MB-231 [22]): Active; Activity (MDA-MB-231 [23]): Active; Activity (MDA-MB-231 [24]): Active; Activity (MDA-MB-231 [25]): 14.2%
COc1ccccc1-c1cnccc1C(=O)Nc1nnc(N2CCN(C(=O)c3cc(Cc4n[nH]c(=O)c5ccccc45)ccc3F)CC2)s1					> 1	91.4	
COc1ccccc1-c1cnccc1C(=O)N1CCN(C(=O)c2cc(Cc3n[nH]c(=O)c4ccccc34)ccc2F)CC1					> 1	87.9	
COc1ccccc1-c1cnccc1C(=O)Nc1ncc(N2CCN(C(=O)c3cc(Cc4n[nH]c(=O)c5ccccc45)ccc3F)CC2)s1					> 1	93.1	
COc1ccccc1-c1cnccc1C(=O)Nc1nnc(OCC2CN(C(=O)c3cc(Cc4n[nH]c(=O)c5ccccc45)ccc3F)C2)s1					> 1	36.9	
COc1ccccc1-c1cnccc1C(=O)Nc1nnc(OC2CC3(C2)CN(C(=O)c2cc(Cc4n[nH]c(=O)c5ccccc45)ccc2F)C3)s1					0.268	56.4	
COc1ccccc1-c1cnccc1C(=O)Nc1nnc(OC2CC3(CCN(C(=O)c4cc(Cc5n[nH]c(=O)c6ccccc56)ccc4F)CC3)C2)s1					0.166	47	
COc1cccc(F)c1-c1cc(C)ncc1C(=O)Nc1nnc(OC2CC3(CCN(C(=O)c4cc(Cc5n[nH]c(=O)c6ccccc56)ccc4F)CC3)C2)s1	> 80	65.6	5.5	7.2	0.0793	72.8	IC50 (MCF-10A): Non-Toxic
COc1ccc(Cl)cc1-c1cc(C)ncc1C(=O)Nc1nnc(OC2CC3(CCN(C(=O)c4cc(Cc5n[nH]c(=O)c6ccccc56)ccc4F)CC3)C2)s1	> 80	89.4	10.5	6.2	0.0598	66.9	IC50 (MCF-10A): Non-Toxic
COc1ccccc1-c1cnccc1C(=O)Nc1nnc(N2CC3(CCN(C(=O)c4cc(Cc5n[nH]c(=O)c6ccccc56)ccc4F)CC3)C2)s1					> 1	82.8	
O=C(Nc1nnc(OCc2ccc(Cl)cc2)s1)c1cc(Cc2n[nH]c(=O)c3ccccc23)ccc1F					> 1		
COc1cnc(C(F)F)cc1-c1cc(N2CCC(C)CC2=O)ncc1C(=O)Nc1nnc(C#CC2CC2)s1 (stereo not given)							IC50 (DNA polymerase theta [28]): < 0.2 µM
COc1ccccc1-c1cnccc1C(=O)Nc1nnc(OCC2CCN(C(=O)c3cc(Cc4n[nH]c(=O)c5ccccc45)ccc3F)CC2)s1	32.6	18.1	5.6	17.6	0.117	91.6	IC50 (MCF-10A): Non-Toxic
COc1ccc(F)cc1-c1cc(C)ncc1C(=O)Nc1nnc(OC2CC3(CCN(C(=O)c4cc(Cc5n[nH]c(=O)c6ccccc56)ccc4F)CC3)C2)s1	> 80	57.8	9.1	8.4	0.0719	70.1	IC50 (MCF-10A): Non-Toxic; IC50 [29]: 0.0047 µM
COc1ccccc1-c1cnccc1C(=O)Nc1nnc(OCc2ccc(Cl)cc2)s1	92.1	61.9	59.4	46.3	0.0024		IC50 (DNA polymerase theta [30]): 0.0024 µM; IC50 (SW48; read-out: IC50): 13.4 µM; IC50 at 5 days [6]: > 80 µM; IC50 (DNA polymerase theta [28]): < 0.2 µM
COc1ccccc1-c1cnccc1C(=O)Nc1nnc(OCc2cc(Cc3n[nH]c(=O)c4ccccc34)ccc2F)s1						30.3	
